In PMC5931191, “Reversible stapling of unprotected peptides via chemoselective methionine bis-alkylation/dealkylation” (Chemical Science, 2018):
“Also recorded” adds a separate entry of the source. Blank lines part the entries; values can stand above or below the compound they belong to. Where a SMILES comes first, the peptide text is derived from it.

How the values were obtained:
trypsin = assay: In vitro trypsin digestion assay; conditions: peptide 1 mM in PBS pH 7.4, 100 µL + 1 µL trypsin (1 mg/mL) (1%), 37 °C, different time intervals, LC/MS peak detection at 254 nm; compared with linear peptide 1; Fig. 3C
Experimental: LC-MS spectra were carried out on SHIMAZU LC-MS 8030 (ESI-MS) in positive ion mode.
trypsin (1 mg/mL) was added and incubated at 37°C. At different time interval, the solution was mixed with 12%
trichloroacetic acid (H2O/CH3CN: 2:1) to inactivate the trypsin.
the peptide remaining was examined by LC/MS with a grace smart C18 250× 4.6mm column, using a 4% per minute
linear gradient from 10% to 70% acetonitrile over 15min. The amount of starting material left in each sample was

U2OS cells [1] = assay: LDH release assay
Experimental: concentration of 10 μM in FBS free medium and incubated with the cells for 4 hours at 37°C. After that, the medium
was removed and the cells were gently washed 2 times with PBS and then fixed with 4% paraformaldehyde (Alfa
Aesar, MA) in PBS for 10 minutes. The cells were again washed 2 times with PBS and stained with 1μg/ml 4', 6-
diamidino-2-phenylindole (DAPI) (Invitrogen, CA) in PBS for 5 minutes. Images of peptide localization in cells were
taken on PerkinElmer confocal microscopy under the same parameters and processed using Volocity software package
LDH release was performed by using Cytotoxicity LDH Assay Kit-WST®. Briefly, ~10000 cells suspension was added
to each well of the 96 well plate and allowed to grow overnight. The cells were then incubated with the fresh medium
containing serial dilution of peptides at 37 °C for 4h. Lysis Buffer was added as positive control at 37 °C for 30min.
After that, 50μL of the incubation medium were taken out to another 96 well plate followed the addition of 50μL Working
Solution and incubated for 30min at room temperature. Then 25μL Stop Solution was added into the wells. The
absorbance at 490 nm was measured by a microplate reader (Perkin Elmer, Envision, 2104 Multilabel Reader). The
LDH release activity was calculated by (LDH% samples-LDH% blank) / (LDH% positive control -LDH% blank).

U2OS cells [2] = assay: Flow cytometry cellular uptake in U2OS cells; assay type: cell-based; conditions: FITC-labelled peptides 10 µM, 4 h, 37 °C, FACS, Fig. S4 (legend not available)
HeLa cells = assay: Flow cytometry cellular uptake in HeLa cells; assay type: cell-based; conditions: for cellular uptake efficiency (flow cytometry) in the presence of serum: 10% fetal bovine serum, 5, 10, 20 µM, Fig. S5
[3] = target: T1, Recombinant Human Caspase-3 protein (Homo sapiens, UniProt P42574); assay: In vitro caspase-3 AMC release assay; assay type: biochemical; conditions: peptide 5 µM, caspase-3 0.4 ng/µL, 1 h, read every 5 min, Ex 340 nm / Em 450 nm, triplicates; Fig. 5C
T1 construct: purchased RnD SYSTEMS
T1 sequence (P42574 29-175 limits assumed): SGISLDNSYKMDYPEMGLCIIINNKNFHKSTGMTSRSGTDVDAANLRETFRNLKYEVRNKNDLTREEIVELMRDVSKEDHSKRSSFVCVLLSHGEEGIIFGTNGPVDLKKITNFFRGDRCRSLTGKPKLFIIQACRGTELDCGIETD
T1 sequence (P42574 176-277 limits assumed): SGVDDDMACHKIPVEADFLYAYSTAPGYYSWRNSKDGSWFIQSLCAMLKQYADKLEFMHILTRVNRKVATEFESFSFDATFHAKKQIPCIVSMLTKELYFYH
Experimental: 8. AMC release Assays.
In vitro Caspase-3 assay:
(§1) AMC conjugated peptides 16-19 (50 μL, 5μM)
All experiments were performed in triplicates with […]
blank control) to induce the activity of caspase-3. […]
(§2) collected by centrifugation.
(§3) Besides, an induced well pretreated with the caspase pan-

[4] = Dealkylation of cyclic peptides with 2-mercaptopyridine (regeneration of linear peptide); assay type: physicochemical; conditions: chemical stability under reductive conditions; 2-mercaptopyridine (10 equiv., 10 mM) in PBS pH 7.4, 37 °C, different time points, HPLC / LC-MS; Fig. 3A, B
Experimental: in linear gradient mixtures.
1. Preparation of alkylated sulfonium peptides[1]
The alkylated reagent (1.2 equiv)
Then the solution was purified by reversed […]
peptide can be gradually regenerated to the linear peptide.
To 100 µL of each solution 1 µL […]
linear gradient from 10% to 70% acetonitrile over 15min. […]
quantified by LC/MS-based peak detection at 254nm.
4. Flow Cytometry Analysis
T47D cells were seeded in
37°C), washed with PBS, and resuspended in PBS. […]
cytometer (Becton Dickinson) and CellQuest Pro (or CFlow plus).

[5] = Met bis-alkylation (bis-sulfonium staple) with linker c, 1,4-bis(bromomethyl)benzene (1.2 equiv), 1% HCOOH (pH ~3), 24 h; conditions: the molecule shown is the open-chain precursor, 22-membered ring, MeCN/H2O 30:70 (SI: 1:3) + 1% HCOOH, small amount of DMF, 10.0 mM, 25.0 °C
U2OS cells [6] = assay: Confocal microscopy of AMC release in U2OS cells; assay type: cell-based
Experimental: (§4) experiments were performed in triplicates with consistent results.
(§5) 100μl U2OS cells were cultured in 96 well plate (~5000 cells / well) overnight, then 0.1 μl of ABT-737 stock solution (10 mM, 1 h) was added into half of the wells to induce apoptosis. After that, peptide 16, 17i, 18i, and 19 stock solution (final concentration of 5 µM) were added into the cells. At different time points, the fluorescence of the wells treated […]
(§6) difference in fluorescence yields between ABT-737 treated and untreated cells was plotted as a function of time to represent the caspase-3 activities in live cells.
(§7) U2OS cells were cultured in 24 well plates with imaging dishes (50000 cells/well) and then treated with peptide 17i, 18i and 19 (100µM) in FBS free medium for 4h. Then the medium was removed and the cells were cultured with a fresh medium containing 10mM GSH for 8h, 16h, or 24h. The release efficiency of AMC was monitored using fluorescence microscopy with pseudo-colored in blue as described.
(§8) Table S1. Conversion of peptide 1 to peptide 1a in different solvents at different time intervals.
(§9) Table S2. Peptide sequences and observed masses following HPLC purification. Calculated and Found m/z are presented as [M+H] + / [M/2+H] +/ [M/3+H] +/ [M/4+H] +.
(§10) Peptide Sequence Calculated mass Observed mass
(§11) (1 picture or pasted object on this page, not shown here)

[7] = target: T2, caspase-3 in U2OS cell lysates (Homo sapiens, UniProt P42574); assay: AMC release assay in U2OS cell lysate; assay type: biochemical; conditions: peptide 5 µM, 24 h, Fig. 5D
T2 construct: endogenous in cells; host or cells: U2OS cells, ABT-737-induced, lysed
T2 sequence (P42574 29-175 limits assumed): T1 sequence (P42574 29-175 limits assumed)
T2 sequence (P42574 176-277 limits assumed): T1 sequence (P42574 176-277 limits assumed)
Experimental: 8. AMC release Assays. […]
as §1
All experiments were performed in triplicates with
blank control) to induce the activity of caspase-3.
as §2, §3

U2OS cells [8] = assay: AMC release (caspase-3) assay in live U2OS cells; assay type: cell-based; conditions: ABT-737 10 µM 1 h, peptide 5 µM, after incubation for 12 hours, Fig. S9
Experimental: as §4, §5, §6, §7, §8, §9, §10, §11

Compound: CC(=O)N[C@@H](Cc1c[nH]c2ccccc12)C(=O)N[C@H]1CC[S+](C)Cc2ccc(cc2)-c2ccc(cc2)C[S+](C)CC[C@@H](C(N)=O)NC(=O)[C@H](CC(=O)O)NC(=O)CNC(=O)[C@H](CCCNC(=N)N)NC1=O (stereo partly drawn) [1i]
trypsin stability (peptide remaining) (trypsin): significantly enhanced the trypsin stability

Compound: CCCC[C@@H]1NC(=O)[C@H](CC(=O)O)NC(=O)[C@@H](NC(C)=O)CSCc2ccc(cc2)-c2ccc(cc2)CSC[C@H](C(=O)N[C@@H](CC(=O)O)C(=O)Nc2ccc3c(C)cc(=O)oc3c2)NC1=O [18i] (HELM PEPTIDE1{[ac].C.D.[Nle].[dC].D.[Cc1cc(=O)oc2cc(N[*:1])ccc12]}|CHEM1{[c1cc(-c2ccc(C[*:2])cc2)ccc1C[*:1]]}$PEPTIDE1,CHEM1,2:R3-1:R1|PEPTIDE1,CHEM1,5:R3-1:R2$$$V2.0)
membrane toxicity (LDH release) (U2OS cells [1]; 160 µM, 4 h, 10% serum, Fig. S8): negligible membrane toxicity

Compound: FITC-βA-(cyclo-c)-MRRRM-NH2 (sidechain bridge or staple) [11c, peptide 11 cyclized using linker c]
cellular uptake efficiency (flow cytometry) (U2OS cells [2]): best uptake
cellular uptake efficiency (flow cytometry) in the presence of serum (HeLa cells): same tendency as in the absence of serum
cellular uptake efficiency (flow cytometry) (HeLa cells; FITC-labelled peptides 10 µM, 4 h, 37 °C, absence of serum, trypsin wash, FACS, Fig. 4C): best uptake; also recorded: better cellular uptake than the thioether cyclic peptide

AMC release / susceptibility to caspase-3 in vitro [3]: quick degradation
Compound: CCCC[C@H](NC(=O)[C@H](CC(=O)O)NC(=O)[C@H](CCSC)NC(C)=O)C(=O)N[C@@H](CCSC)C(=O)N[C@@H](CC(=O)O)C(=O)Nc1ccc2c(C)cc(=O)oc2c1 [compound 17] (HELM PEPTIDE1{[ac].M.D.[Nle].M.D.[Cc1cc(=O)oc2cc(N[*:1])ccc12]}$$$$V2.0)

membrane lysis effect (U2OS cells [1]; Fig. S7B (confocal, 100 µM) and S8 (LDH release, 4 h, 10% serum)): membrane lysis effect
Compound: CCCC[C@H](NC(=O)[C@H](CC(=O)O)NC(=O)[C@H](CCCNC(=N)N)NC(=O)[C@H](CCCNC(=N)N)NC(=O)[C@H](CCCNC(=N)N)NC(=O)[C@H](CCCNC(=N)N)NC(=O)[C@H](CCCNC(=N)N)NC(=O)[C@H](CCCNC(=N)N)NC(=O)[C@H](CCCNC(=N)N)NC(=O)[C@H](CCCNC(=N)N)NC(=O)[C@H](CCCNC(=N)N)NC(C)=O)C(=O)N[C@@H](CC)C(=O)N[C@@H](CC(=O)O)C(=O)Nc1ccc2c(C)cc(=O)oc2c1 [compound 19] (HELM PEPTIDE1{[ac].R.R.R.R.R.R.R.R.R.D.[Nle].[Abu].D.[Cc1cc(=O)oc2cc(N[*:1])ccc12]}$$$$V2.0)

Compound: Ac-W-(cyclo-d)-MRGDM-NH2 (sidechain bridge or staple) [1d, peptide 1 Met bis-alkylated with linker d]
regeneration of the parental linear peptide 1 (dealkylation) [4]: time-dependent regeneration of the parental peptide 1

Compound: Ac-W-(cyclo-c)-MRGDM-NH2 (sidechain bridge or staple) [1c, peptide 1 Met bis-alkylated with linker c]
regeneration of the parental linear peptide 1 (dealkylation) [4]: time-dependent regeneration of the parental peptide 1

Compound: FITC-βA-(cyclo-i)-MRRRM-NH2 (sidechain bridge or staple) [11i, peptide 11 cyclized using linker i]
cellular uptake efficiency (flow cytometry) in the presence of serum (HeLa cells): same tendency as in the absence of serum

Compound: CSCC[C@H](NC(=O)[C@H](Cc1c[nH]cn1)NC(=O)[C@@H]1CCCN1C(=O)[C@H](CC[S+](C)Cc1ccc(CBr)cc1)NC(=O)[C@H](Cc1c[nH]c2ccccc12)NC(C)=O)C(=O)N[C@@H](C)C(N)=O (stereo partly drawn) [Ac-Trp-Met-Pro-His-Met-Ala-NH2]
ring closure, conversion by HPLC [5]: 74%

AMC release / susceptibility to caspase-3 in vitro [3]: not a suitable substrate for caspase-3
AMC release in cell lysate pretreated with pan caspase inhibitor FMK ([7]; U2OS lysate, FMK 100 µM): reduced significantly
time-dependent AMC release in cell lysate ([7]; lysate of U2OS cells induced with ABT-737 (10 µM, 1 h), without FMK, triplicates): increased gradually during 24 h
Compound: cyclo-i-Met-Asp-Nle-Met-Asp-AMC (sidechain bridge or staple) [17i, Met bis-alkylated peptide 17 with linker i]
AMC fluorescence in cells (confocal) in the presence of serum (U2OS cells [6]; peptide 50 µM 4 h with 10% fetal bovine serum, GSH 10 mM 16 h, ABT-737 10 µM 1 h, Fig. S7A): weaker fluorescence intensity
AMC fluorescence in cells (confocal, 405 nm excitation) (U2OS cells [6]; peptide 100 µM 4 h in FBS free medium, then 10 mM GSH 8, 16 or 24 h, then ABT-737 10 µM 1 h, Fig. 5E, S7B): lighted gradually
caspase-3 activity (AMC release) in live cells (U2OS cells [8]): higher caspase-3 activity than the linear peptide 16, while lower than 19

Compound: FITC-βA-(cyclo-a)-MRRRM-NH2 (sidechain bridge or staple) [11a, peptide 11 cyclized using linker a]
cellular uptake efficiency (flow cytometry) in the presence of serum (HeLa cells): same tendency as in the absence of serum
